Measured values from patent US12636366B2, “Ruthenium (II) complexes and conjugates thereof for use as photosensitizer agent in photodynamic therapy” (Paris Sciences et Lettres, priority 2019, dated 2026).

Tests used:
[1] = target: Cys-34 residue of HSA (Homo sapiens, UniProt P02768)
Protocol: UV-visible (UV-Vis) spectrophotometry was monitored on an Agilent Cary 8454 diode array spectrophotometer in the wavelength range between 190 and 1100 nm.
Interaction of complex 12 at the Cys-34 residue of HSA was investigated spectrophotometrically via the dithiodipyridine (DTDP) method described previously (Pichler et al., 2013). […] A first series of UV-Vis spectra (a) were recorded before addition of 110 μM DTDP and a second series of UV-Vis spectra (b) were recorded after addition of 110 μM DTDP and after another 40 min waiting. […] Blank experiment with compound 13 was carried out as well as a control experiment. The effect of protein unfolding on the thiol binding of complex 12 was studied by the addition of 0.5% (m/m) SDS to the protein prior to its reaction with the complex. This experiment allows to determine the amount of free Cys-34 residue of HSA as a function of the added equivalent of the complexes.

[2] = cited from earlier work

Chain of Cys-34 residue of HSA (P02768 25-609): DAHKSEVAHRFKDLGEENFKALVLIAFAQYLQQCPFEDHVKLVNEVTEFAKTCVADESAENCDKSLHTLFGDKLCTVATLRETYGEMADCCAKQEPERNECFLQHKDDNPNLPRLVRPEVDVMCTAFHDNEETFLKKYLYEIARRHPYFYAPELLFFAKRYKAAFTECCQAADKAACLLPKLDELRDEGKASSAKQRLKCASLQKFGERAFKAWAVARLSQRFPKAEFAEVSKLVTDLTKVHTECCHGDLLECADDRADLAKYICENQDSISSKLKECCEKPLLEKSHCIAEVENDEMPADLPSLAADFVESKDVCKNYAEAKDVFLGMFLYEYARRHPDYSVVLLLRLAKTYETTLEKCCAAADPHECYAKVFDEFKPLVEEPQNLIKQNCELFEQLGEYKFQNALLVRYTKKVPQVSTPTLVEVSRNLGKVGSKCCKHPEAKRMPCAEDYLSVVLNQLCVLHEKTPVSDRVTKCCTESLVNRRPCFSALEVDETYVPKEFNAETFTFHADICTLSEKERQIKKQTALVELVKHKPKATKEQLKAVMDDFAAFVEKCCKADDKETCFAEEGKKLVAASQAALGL

Molecule: Cc1ccnc(-c2cc(C)ccn2)c1.[Cl-].[Cl-].[Ru+2].c1ccc(-c2ccnc3c2ccc2c(-c4ccccc4)ccnc23)cc1.c1ccc(-c2ccnc3c2ccc2c(-c4ccccc4)ccnc23)cc1 [Compound 13, (4,4′-Dimethyl-2,2′-bipyridine)bis(4,7-diphenyl-1,10-phenanthroline)ruthenium(II) dichlorine]
- Interaction with Cys-34 thiol group (free thiol content) of native HSA ([1]; 133 μM HSA, 0-120 μM complex, 3 h or 30 min, pH=7.00 (PBS)): affects barely the quantity of free thiol groups

Molecule: [Cl-].[Cl-].[Ru+2].c1ccc(-c2ccccn2)nc1.c1ccc(-c2ccccn2)nc1.c1ccc(-c2ccccn2)nc1 [[Ru(bipy)3]Cl2]
- Φ(1O2) of reference in D2O / water ([2]; solution in D2O / water): 0.22

Molecule: O=C1C=Cc2cccc3cccc1c23 [phenalenone]
- Φ(1O2) of reference in CH3CN ([2]; solution in CH3CN): 0.95

Molecule: [Ru(bphen)2(Me-maleimidemethyl)](Cl)2 [Compound 12]
- Interaction with Cys-34 thiol group of unfolded HSA ([1]; 0.5% SDS as denaturing agent, 0.5 h incubation): nearly quantitative interaction
- Effect of incubation time on Cys-34 interaction ([1]; 3 h versus 30 min incubation with HSA): did not result in remarkable differences
